Tests used:
[1] = test system: 6-carboxyfluorescein-dArU(dA)2-6-carboxytetramethylrhodamine; test: RNase A activity assay on immobilized RNase A; type: biochemical; conditions: chip overlaid with 10 μM protein, pH 6.0
Protocol: RNase A activity assay on immobilized RNase A. A phosphinothioester chip was overlaid with azido-RNase A (10 μM in 5% DMF/H2O) for 15 min in Ar(g) atmosphere in an AtmosBag™ to immobilize RNase A via Staudinger ligation. The chip was rinsed with sodium phosphate buffer (25 mM) at pH 7.5 (2×20 mL) and then introduced into a vial containing 2-(N-Morpholino)ethanesulfonic acid buffer (0.1 M) at pH 6.0 (22 mL, containing 0.1 M NaCl). A fluorogenic substrate of RNase A, 6-carboxyfluorescein-dArU(dA)2-6-carboxytetramethylrhodamine (10 μl of a 40 μM solution), was introduced into the vial. The vial was placed on a shaker and 2 mL aliquots were withdrawn at various time intervals and the fluorescence measured (λex=493 nm, λem=515 nm). The fluorescence intensity was plotted against time. A phosphinothioester chip was overlaid with wt-RNase A (10 μM in 5% DMF/H2O) and rinsed with sodium phosphate buffer (25 mM) at pH 7.5 (2×20 mL) and a similar assay was performed. As a negative control, a similar assay was performed on a phosphinothioester chip which was not overlaid with RNase A. The percentage of the fluorescent substrate cleaved at various time intervals were subtracted from the corresponding values for the negative control to generate the graph in FIG. 8.

[2] = biological target: T1, ribonuclease inhibitor protein (RI) (Homo sapiens, UniProt P13489); test: RI binding to immobilized RNase A (immunoassay, ellipsometry); conditions: RI 10 μM, 10 min at 4° C.
T1 sequence (P13489 2-461 limits assumed): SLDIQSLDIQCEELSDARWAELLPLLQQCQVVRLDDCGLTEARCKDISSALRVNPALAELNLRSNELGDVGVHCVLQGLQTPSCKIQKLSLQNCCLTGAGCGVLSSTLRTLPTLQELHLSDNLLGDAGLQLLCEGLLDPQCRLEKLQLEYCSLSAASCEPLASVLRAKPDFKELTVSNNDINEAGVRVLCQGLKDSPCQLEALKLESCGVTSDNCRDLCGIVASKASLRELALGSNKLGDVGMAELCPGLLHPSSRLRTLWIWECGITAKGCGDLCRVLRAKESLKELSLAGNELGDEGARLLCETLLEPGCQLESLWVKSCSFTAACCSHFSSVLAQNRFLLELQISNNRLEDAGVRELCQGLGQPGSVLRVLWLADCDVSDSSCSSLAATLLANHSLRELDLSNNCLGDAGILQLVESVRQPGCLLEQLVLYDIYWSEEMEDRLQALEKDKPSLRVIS
Protocol: RI binding to immobilized RNase A. Azido-RNase A (1 μL, 10 μM in 5% DMF/water) was spotted on phosphinothioester-displaying SAMs on a gold chip for 15 minutes at r.t. in an AtmosBag™ filled with Ar(g). The chip was taken out of the bag and rinsed with sodium phosphate buffer (25 mM) at pH 7.5 (2×20 mL) and incubated in the same buffer for 30 min to remove non-specifically bound RNase A. RI (10 μM in sodium phosphate buffer (25 mM) at pH 7.5 containing 10 mM DTT) was overlaid on the chip for 10 min at 4° C. The chip was then rinsed with sodium phosphate buffer (25 mM) at pH 7.5 containing 10 mM DTT (2×20 mL) and incubated in the same buffer for 15 min.
Detection of RI bound to immobilized RNase A. (i) Immunoassay: After RI binding, the chip was overlaid with bovine serum albumin (2.0 mg/mL in sodium phosphate buffer (25 mM) at pH 7.5) for 15 min. The chip was rinsed with sodium phosphate buffer (25 mM) at pH 7.5 (2×20 mL) and subsequently incubated with chicken primary antibody to RI (12.5 μg/mL in sodium phosphate buffer (25 mM) at pH 7.5) for 15 min. […] The chip was scanned with a Genomic Solutions® GeneTac UC4×4 Fluorescence Scanner using a gain of 50. […]

[3] = Immobilization on phosphinothioester-displaying chips by Staudinger ligation, immunofluorescence detection; conditions: 10 μM in 5% DMF/water, r.t.
Protocol: Preparation of Gold Chips (Chang). Preparation of Phosphinothioester-displaying SAMs of Alkane Thiols on Gold Chips. Alkane thiol solutions were prepared by dissolving HS—(CH2)11—(O—CH2—CH2)6—O—CH2—COOH and HS—(CH2)11—(O—CH2—CH2)3—OH in ethanol to a final concentration of 0.25 mM each. Gold chips were cleaned under a stream of Ar(g) and immersed in the alkane thiol solution for at least 18 h at r.t. After rinsing thoroughly with ethanol and drying under a stream of Ar(g), the chips were overlaid with an aqueous solution containing N-hydroxysuccinimide (50 mM) and 1-ethyl-3-(3-dimethylaminopropyl)-carbodiimide (200 mM) for 7 min to generate succinimidyl ester-displaying chips. Phosphinomethanethiol (PPh2CH2SH) was synthesized as described earlier and was dissolved in anhydrous DMF to a concentration of 100 mM. N,N-diisopropylethylamine (DIPEA) was added to a concentration of 120 mM. […]
Detection of Immobilized RNase A. A chip displaying immobilized RNase A was overlaid with anti-RNase A rabbit primary antibody (100 μg/mL in sodium phosphate buffer (25 mM) at pH 7.5) for 30 min at r.t. […] Finally, the chip was rinsed with sodium phosphate buffer (25 mM) at pH 7.5 (2×20 mL) and incubated in the same buffer for 15 min and scanned with a Genomic Solutions® GeneTac UC4×4 Fluorescence Scanner using a gain of 50.

## Met(−1)RNase A-Gly-NHNHCH2C(O)NHCH2CH2N3 [azido-RNase A]
[1]
  enzymatic activity of chip incubated with the protein (increase of fluorescence intensity): much faster rate
[2]
  RI binding to chip incubated with the protein: bound RI
[3]
  time at which fluorescence signal of immobilized protein was detected: ≤ 1 min
